Data as given in ChEMBL document CHEMBL4229332, “Novel multi-target azinesulfonamides of cyclic amine derivatives as potential antipsychotics with pro-social and pro-cognitive effects” (Eur J Med Chem, 2018).

Key:
[1] = target: T1, 5-hydroxytryptamine receptor 1A (Homo sapiens) (UniProt P08908); test: Antagonist activity at human 5-HT1AR expressed in mouse BA/F3 cells assessed as inhibition of serotonin-induced calcium flux at 10^-6 M by fluorimetric method; type: functional, cell-based
T1 sequence (whole entry): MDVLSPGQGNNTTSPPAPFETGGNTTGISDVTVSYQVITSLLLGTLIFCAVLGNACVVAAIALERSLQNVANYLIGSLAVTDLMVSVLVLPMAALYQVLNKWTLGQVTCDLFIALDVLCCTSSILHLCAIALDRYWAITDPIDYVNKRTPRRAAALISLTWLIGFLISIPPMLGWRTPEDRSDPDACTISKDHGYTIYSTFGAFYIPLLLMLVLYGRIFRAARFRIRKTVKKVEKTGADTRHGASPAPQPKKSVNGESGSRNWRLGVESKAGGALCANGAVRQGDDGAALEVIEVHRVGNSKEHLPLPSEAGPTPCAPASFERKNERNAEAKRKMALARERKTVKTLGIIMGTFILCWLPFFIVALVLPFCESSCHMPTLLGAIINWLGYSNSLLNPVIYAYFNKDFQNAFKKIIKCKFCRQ

[2] = Drug level in Wistar rat plasma at 3 mg/kg, ip measured after 15 mins by LC-MS/MS analysis; type: ADME, organism-based
[3] = Drug level in Wistar rat brain at 3 mg/kg, ip measured after 15 mins by LC-MS/MS analysis; type: ADME, organism-based; settings: read-out: Drug uptake
[4] = Drug level in Wistar rat brain at 3 mg/kg, ip measured after 60 mins by LC-MS/MS analysis; type: ADME, organism-based; settings: read-out: Drug uptake
[5] = Ratio of drug level in brain to plasma in Wistar rat at 3 mg/kg, ip measured after 30 mins by LC-MS/MS analysis; type: ADME, organism-based; settings: read-out: BPR
[6] = target: Voltage-gated inwardly rectifying potassium channel KCNH2 (Homo sapiens, UniProt Q12809); test: Inhibition of human ERG expressed in CHOK1 cells at 10 to 50 uM by whole-cell patch clamp method; type: cell-based
Cavia porcellus [7] = test: Cardiotoxicity in guinea pig assessed as effect on QT interval time at 5 mg/kg, ip measured after 20 mins by ECG analysis (reference value: 127.6 to 131.2 milliseconds); type: toxicity, organism-based; settings: in vivo
Cavia porcellus [8] = test: Cardiotoxicity in guinea pig assessed as effect on QT interval time at 5 mg/kg, ip measured after 60 mins by ECG analysis (reference value: 127.6 to 131.2 milliseconds); type: toxicity, organism-based; settings: in vivo, 1 h
Cavia porcellus [9] = test: Cardiotoxicity in guinea pig assessed as effect on QT interval time at 5 mg/kg, ip measured after 80 mins by ECG analysis (reference value: 127.6 to 131.2 milliseconds); type: toxicity, organism-based; settings: in vivo
Cavia porcellus [10] = test: Cardiotoxicity in guinea pig assessed as effect on PR interval time at 5 mg/kg, ip measured after 30 mins by ECG analysis (reference value: 58.8 to 63.8 milliseconds); type: toxicity, organism-based; settings: in vivo, 0.5 h
Cavia porcellus [11] = test: Cardiotoxicity in guinea pig assessed as effect on PR interval time at 5 mg/kg, ip measured after 50 mins by ECG analysis (reference value: 58.8 to 63.8 milliseconds); type: toxicity, organism-based; settings: in vivo
Cavia porcellus [12] = test: Cardiotoxicity in guinea pig assessed as effect on PR interval time at 5 mg/kg, ip measured after 60 mins by ECG analysis (reference value: 58.8 to 63.8 milliseconds); type: toxicity, organism-based; settings: in vivo, 1 h
Cavia porcellus [13] = test: Cardiotoxicity in guinea pig assessed as effect on QRS interval time at 5 mg/kg, ip measured after 40 mins by ECG analysis (reference value: 26.2 to 31.6 milliseconds); type: toxicity, organism-based; settings: in vivo
Cavia porcellus [14] = test: Cardiotoxicity in guinea pig assessed as effect on QRS interval time at 5 mg/kg, ip measured after 50 mins by ECG analysis (reference value: 26.2 to 31.6 milliseconds); type: toxicity, organism-based; settings: in vivo
Cavia porcellus [15] = test: Cardiotoxicity in guinea pig assessed as effect on QRS interval time at 5 mg/kg, ip measured after 60 mins by ECG analysis (reference value: 26.2 to 31.6 milliseconds); type: toxicity, organism-based; settings: in vivo, 1 h
Cavia porcellus [16] = test: Cardiotoxicity in guinea pig assessed as effect on QRS interval time at 5 mg/kg, ip measured after 70 mins by ECG analysis (reference value: 26.2 to 31.6 milliseconds); type: toxicity, organism-based; settings: in vivo
Cavia porcellus [17] = test: Cardiotoxicity in guinea pig assessed as effect on RR interval time at 5 mg/kg, ip measured after 10 mins by ECG analysis (reference value: 208.4 to 238.4 milliseconds); type: toxicity, organism-based; settings: in vivo
Cavia porcellus [18] = test: Cardiotoxicity in guinea pig assessed as effect on RR interval time at 5 mg/kg, ip measured after 30 mins by ECG analysis (reference value: 208.4 to 238.4 milliseconds); type: toxicity, organism-based; settings: in vivo, 0.5 h
Cavia porcellus [19] = test: Cardiotoxicity in guinea pig assessed as effect on RR interval time at 5 mg/kg, ip measured after 40 mins by ECG analysis (reference value: 208.4 to 238.4 milliseconds); type: toxicity, organism-based; settings: in vivo
Cavia porcellus [20] = test: Cardiotoxicity in guinea pig assessed as effect on RR interval time at 5 mg/kg, ip measured after 60 mins by ECG analysis (reference value: 208.4 to 238.4 milliseconds); type: toxicity, organism-based; settings: in vivo, 1 h
Cavia porcellus [21] = test: Cardiotoxicity in guinea pig assessed as effect on RR interval time at 5 mg/kg, ip measured after 70 mins by ECG analysis (reference value: 208.4 to 238.4 milliseconds); type: toxicity, organism-based; settings: in vivo
Cavia porcellus [22] = test: Cardiotoxicity in guinea pig assessed as effect on QTc interval time at 5 mg/kg, ip measured after 50 mins by ECG analysis (reference value: […] to […] milliseconds); type: toxicity, organism-based; settings: in vivo
Cavia porcellus [23] = test: Cardiotoxicity in guinea pig assessed as effect on QTc interval time at 5 mg/kg, ip measured after 70 mins by ECG analysis (reference value: […] to […] milliseconds); type: toxicity, organism-based; settings: in vivo
Cavia porcellus [24] = test: Cardiotoxicity in guinea pig assessed as effect on frequence of heart rate at 5 mg/kg, ip measured after 10 mins by ECG analysis (reference value: 262 to 296 /min); type: toxicity, organism-based; settings: in vivo
Cavia porcellus [25] = test: Cardiotoxicity in guinea pig assessed as effect on frequence of heart rate at 5 mg/kg, ip measured after 20 mins by ECG analysis (reference value: 262 to 296 /min); type: toxicity, organism-based; settings: in vivo
Cavia porcellus [26] = test: Cardiotoxicity in guinea pig assessed as effect on frequence of heart rate at 5 mg/kg, ip measured after 40 mins by ECG analysis (reference value: 262 to 296 /min); type: toxicity, organism-based; settings: in vivo
Cytochrome P450 3A4 = Cytochrome P450 3A4 (Homo sapiens, UniProt P08684); test: Inhibition of human supersome CYP3A4 using testosterone as substrate assessed as testosterone 6beta-hydroxylation after 30 mins by HPLC-UV detection; type: ADME
[27] = Toxicity in ip dosed Sprague-Dawley rat assessed as sedation pretreated for 60 mins followed by PCP addition measured for 30 mins starting 15 min after rat reintroduction to auto-tracks; type: organism-based; settings: in vivo
[28] = target: T2, 5-hydroxytryptamine receptor 1A (Homo sapiens, UniProt P08908); test: biochemical
T2 sequence (P08908 whole entry): T1 sequence (whole entry)
Description: Displacement of [3H]-8-OH-DPAT from human 5-HT1AR expressed in HEK293 cell membranes after 1 hr by microbeta counting method

Rattus norvegicus [29] = organism: Rattus norvegicus; test: animal or person; settings: Sprague-Dawley, ip, read-out: MED
Description: Antipsychotic activity in ip dosed Sprague-Dawley rat assessed as reduction in PCP-induced hyper-locomotion pretreated for 60 mins followed by PCP addition measured for 30 mins starting 15 min after rat reintroduction to auto-tracks

Rattus norvegicus [30] = organism: Rattus norvegicus; test: animal or person; settings: Sprague-Dawley, ip, read-out: MED; remark: listed apart in the source
Description: Reversal of PCP-induced cognitive impairment in ip dosed Sprague-Dawley rat assessed as reduction in time spent exploring novel object over familiar object pretreated for 60 mins followed by PCP addition by novel object recognition assay

Chain of Voltage-gated inwardly rectifying potassium channel KCNH2 (Q12809 whole entry): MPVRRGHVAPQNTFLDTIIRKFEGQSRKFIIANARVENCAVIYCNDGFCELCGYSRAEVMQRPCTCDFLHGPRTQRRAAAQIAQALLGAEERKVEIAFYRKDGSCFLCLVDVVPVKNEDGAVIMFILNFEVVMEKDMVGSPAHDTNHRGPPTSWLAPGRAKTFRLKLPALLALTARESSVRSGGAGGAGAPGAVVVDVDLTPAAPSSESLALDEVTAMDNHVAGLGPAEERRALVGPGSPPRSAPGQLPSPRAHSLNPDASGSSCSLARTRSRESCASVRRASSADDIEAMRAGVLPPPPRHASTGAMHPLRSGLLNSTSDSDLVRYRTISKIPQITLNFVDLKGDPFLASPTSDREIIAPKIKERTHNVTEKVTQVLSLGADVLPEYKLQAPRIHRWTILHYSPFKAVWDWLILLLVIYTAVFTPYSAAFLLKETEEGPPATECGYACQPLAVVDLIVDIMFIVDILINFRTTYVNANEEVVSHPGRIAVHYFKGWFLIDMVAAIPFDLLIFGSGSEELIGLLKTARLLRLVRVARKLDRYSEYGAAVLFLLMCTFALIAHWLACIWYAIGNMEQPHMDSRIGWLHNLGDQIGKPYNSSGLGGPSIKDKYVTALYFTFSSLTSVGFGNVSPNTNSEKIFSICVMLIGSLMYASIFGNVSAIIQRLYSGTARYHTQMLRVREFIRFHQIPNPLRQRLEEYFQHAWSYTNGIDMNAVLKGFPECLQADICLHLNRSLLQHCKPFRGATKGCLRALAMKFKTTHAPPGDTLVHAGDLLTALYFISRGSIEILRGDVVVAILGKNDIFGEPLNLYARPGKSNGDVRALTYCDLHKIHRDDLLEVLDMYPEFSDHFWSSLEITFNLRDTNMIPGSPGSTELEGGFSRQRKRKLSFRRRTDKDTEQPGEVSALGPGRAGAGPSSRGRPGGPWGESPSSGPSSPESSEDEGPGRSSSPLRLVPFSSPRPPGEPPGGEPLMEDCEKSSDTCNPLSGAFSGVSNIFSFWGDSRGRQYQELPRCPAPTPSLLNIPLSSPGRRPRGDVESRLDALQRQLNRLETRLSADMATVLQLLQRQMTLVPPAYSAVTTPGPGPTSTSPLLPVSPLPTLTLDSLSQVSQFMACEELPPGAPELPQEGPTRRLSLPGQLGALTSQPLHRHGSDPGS
Chain of Cytochrome P450 3A4 (P08684 whole entry): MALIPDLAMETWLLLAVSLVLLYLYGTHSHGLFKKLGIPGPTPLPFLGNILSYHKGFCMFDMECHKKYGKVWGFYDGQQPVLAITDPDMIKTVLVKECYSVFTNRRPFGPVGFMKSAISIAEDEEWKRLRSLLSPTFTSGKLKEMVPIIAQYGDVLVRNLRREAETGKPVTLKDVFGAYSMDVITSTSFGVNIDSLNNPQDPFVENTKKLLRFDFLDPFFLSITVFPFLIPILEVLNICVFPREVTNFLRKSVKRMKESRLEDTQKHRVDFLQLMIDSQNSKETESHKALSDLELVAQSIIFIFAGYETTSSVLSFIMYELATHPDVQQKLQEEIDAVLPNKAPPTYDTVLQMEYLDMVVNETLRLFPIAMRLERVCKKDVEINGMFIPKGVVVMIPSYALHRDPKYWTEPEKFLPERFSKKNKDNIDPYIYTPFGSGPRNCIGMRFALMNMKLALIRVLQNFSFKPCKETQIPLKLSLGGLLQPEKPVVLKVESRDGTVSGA

| SMILES | inhibition [1] | concentration at 0.25 h [2] | concentration at 0.25 h [3] | concentration at 1 h [4] | Kp at 0.5 h [5] | inhibition (INH) [6] | Time (Cavia porcellus [7]) | Time (Cavia porcellus [8]) | Time (Cavia porcellus [9]) | Time (Cavia porcellus [10]) | Time (Cavia porcellus [11]) | Time (Cavia porcellus [12]) | Time (Cavia porcellus [13]) | Time (Cavia porcellus [14]) | Time (Cavia porcellus [15]) | Time (Cavia porcellus [16]) | Time (Cavia porcellus [17]) | Time (Cavia porcellus [18]) | Time (Cavia porcellus [19]) | Time (Cavia porcellus [20]) | also measured |
| --- | --- | --- | --- | --- | --- | --- | --- | --- | --- | --- | --- | --- | --- | --- | --- | --- | --- | --- | --- | --- | --- |
| O=S(=O)(c1cncc2ccccc12)N1CCC[C@H]1CCN1CCN(c2nsc3ccccc23)CC1 | 87% | 249 nM | 153 nM | 49.4 nM | 1.33 | Active | 121.6 ms | 125.8 ms | 125.6 ms | 58.8 ms | 60 ms | 63.2 ms | 27.6 ms | 27 ms | 27.2 ms | 27.8 ms | 202 ms | 212.6 ms | 211 ms | 210.4 ms | Time (Cavia porcellus [21]): 211.4 ms; Time (Cavia porcellus [22]): 266 ms; Time (Cavia porcellus [23]): 274.6 ms; Activity (Cavia porcellus [24]): 304 min⁻¹; Activity (Cavia porcellus [25]): 296 min⁻¹; Activity (Cavia porcellus [26]): 288 min⁻¹; IC50 (Cytochrome P450 3A4): 23 µM; MTD at 0.5 h [27]: 3 mg/kg; Ki [28]: 0.037 µM; minimal effective dose (Rattus norvegicus [29]): 1 mg/kg; minimal effective dose (Rattus norvegicus [30]): 1 mg/kg |
| O=S(=O)(c1cncc2ccccc12)N1CCC[C@H]1CCN1CCN(c2cccc3sccc23)CC1 | 80% | 188 nM | 317 nM | 89.3 nM | 2.44 | Not Active | 129 ms | 124.6 ms | 123.6 ms | 62.8 ms | 64.2 ms | 63.4 ms | 31.2 ms | 31.6 ms | 30.4 ms | 30.8 ms | 236.6 ms | 235.2 ms | 227.2 ms | 219.8 ms | Time (Cavia porcellus [21]): 214.8 ms; Time (Cavia porcellus [22]): 265 ms; Time (Cavia porcellus [23]): 265.6 ms; Activity (Cavia porcellus [24]): 263 min⁻¹; Activity (Cavia porcellus [25]): 256 min⁻¹; Activity (Cavia porcellus [26]): 263 min⁻¹; IC50 (Cytochrome P450 3A4): 10 µM; MTD at 0.5 h [27]: 3 mg/kg; Ki [28]: 0.018 µM; minimal effective dose (Rattus norvegicus [29]): 1 mg/kg; minimal effective dose (Rattus norvegicus [30]): 1 mg/kg |
